The test concerns the target T1, human tryptase (Homo sapiens, UniProt P20231).
T1 construct: from tissue; host or cells: human lung tissue
As to the kind of experiment: Inhibition of human tryptase: cleavage of chromogenic substrate tos-Gly-Pro-Arg-pNA, equilibrium conditions. Particulars: tryptase from human lung tissue; 50 μg of heparin/ml; in the presence of substrate tos-Gly-Pro-Arg-pNA, 405 nm; read-out: Kiapp (apparent dissociation constant). The class given is biochemical. The source says:
The documented pathophysiological effects of mast cell tryptase are brought about directly by the enzymic activity of the protease. Accordingly, they are reduced or blocked by inhibitors which inhibit the enzymatic activity of the tryptase. The equilibrium dissociation constant Ki of the enzyme-inhibitor complex is a suitable measure of the affinity of a reversible inhibitor for the target protease. This Ki value can be determined by measuring the effect of the inhibitor on the tryptase-induced cleavage of a chromogenic peptide-p-nitroanilide substrate.
The dissociation constants of the tryptase-inhibitor complexes are determined under equilibrium conditions in accordance with the general recommendations of Bieth (Bieth JG, Pathophysiological interpretation of kinetic constants of protease inhibitors, Bull. Europ. Physiopath. Resp. 16:183-195, 1980) and the methods of Sommerhoff et al. (Sommerhoff CP et al., A. Kazal-type inhibitor of human mast cell tryptase: Isolation from the medical leech Hirudo medicinalis, characterization, and sequence analysis, Biol. Chem. Hoppe-Seyler 375: 685-694, 1994).
Human tryptase is prepared in a pure state from lung tissue; the specific activity of the isolated protease, determined by means of titration, is normally 85% of the theoretical value. Constant quantities of tryptase are incubated with increasing quantities of the inhibitors in the presence of 50 μg of heparin/ml for stabilizing the protease. After the equilibrium has been established between the reaction partners, the remaining enzyme activity is determined after adding the peptide-p-nitroanilide substrate tos-Gly-Pro-Arg-pNA, the cleavage of which is monitored at 405 nm over a period of 3 min. Alternatively, the residual enzymic activity can also be determined using fluorogenic substrates. The apparent dissociation constants Kiapp (i.e. in the presence of substrate) are subsequently ascertained by nonlinear regression by fitting the enzyme rates to the general equation for reversible inhibitors (Morrison JF, Kinetics of the reversible inhibition of enzyme-catalysed reactions by tight-binding inhibitors, Biochim. Biophys. Acta 185, 269-286, 1969):
V1/V0=131 {Et+lt+Kiapp−[(Et+lt+Kiapp)^2−4Etlt]^½}/2Et
In this equation, V1, and V0 are the rates in the presence and absence of the inhibitor, respectively, and Et and lt are the concentrations of the tryptase and of the inhibitor.
The apparent dissociation constants which were determined for the compounds according to the invention are given in Table A below, in which the numbers of the compounds correspond to the numbers of the compounds in the examples.

Structures can show the parent of a compound that is named as a salt.

T1 sequence (P20231 31-275): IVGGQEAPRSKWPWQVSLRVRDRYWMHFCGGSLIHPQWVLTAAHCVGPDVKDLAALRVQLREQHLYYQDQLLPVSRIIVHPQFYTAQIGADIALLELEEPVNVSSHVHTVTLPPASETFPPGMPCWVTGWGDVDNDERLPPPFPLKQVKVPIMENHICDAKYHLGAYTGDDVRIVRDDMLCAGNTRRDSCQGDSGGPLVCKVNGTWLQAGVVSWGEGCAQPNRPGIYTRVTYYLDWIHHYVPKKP

As to `NCc1cccc(C(=O)N2CCN(C(=O)c3cccc(C(=O)N4CCN(C(=O)c5cccc(CN)c5)CC4)n3)CC2)c1` [Compound 1, Pyridine-2,6-dicarbobis[4-(3-aminomethylbenzoyl)-1-piperazide]], the Ki turned out to be 3000 nM.

`NCc1cccc(C(=O)NC2CCN(C(=O)c3cccc(C(=O)N4CCC(NC(=O)c5cccc(CN)c5)CC4)n3)CC2)c1` [Compound 11, Pyridine-2,6-dicarbobis[4-(3-aminomethylbenzoylamino)-1-piperidide]]: the Ki worked out at 30 nM. Consider `NCC1CCC(C(=O)NC2CCN(C(=O)c3cccc(C(=O)N4CCC(NC(=O)C5CCC(CN)CC5)CC4)n3)CC2)CC1` (stereo not drawn) [Compound 15, Pyridine-2,6-dicarbobis[4-(4-aminomethylcyclohexyl-carbonylamino)-1-piperidide]], for which the Ki is 3000 nM.

Regarding `NCC1CCC(C(=O)N2CCN(C(=O)Nc3ccc(Oc4ccc(NC(=O)N5CCN(C(=O)C6CCC(CN)CC6)CC5)cc4)cc3)CC2)CC1` (stereo not drawn) [Compound 17, bis{4-[4-(4-Aminomethyl)cyclohexanoylpiperazin-1-yl-]-carbonyl}-4,4′-diaminodiphenyl Ether Dihydrochloride], the Ki turned out to be 22000 nM. The same measure for `NCc1cccc(C(=O)N2CCN(C(=O)Nc3ccc(Oc4ccc(NC(=O)N5CCN(C(=O)c6cccc(CN)c6)CC5)cc4)cc3)CC2)c1` [Compound 21, Bis{4-[4-(3-Aminomethyl)benzoylpiperazin-1-yl]-carbonyl}-4,4′-diaminodiphenyl Ether Dihydrochloride]: 100 nM; for `NCC1CCC(C(=O)NC2CCN(C(=O)NC3CCC(CC4CCC(NC(=O)N5CCC(NC(=O)C6CCC(CN)CC6)CC5)CC4)CC3)CC2)CC1` (stereo not drawn) [Compound 23, di{4-[4-(4-Aminomethyl)cyclohexanoylamino]piperidin-1-ylcarbamoyl}cyclohexylmethane Dihydrochloride]: 800 nM; for `CC(C)(c1ccc(OCC(=O)NCc2ccc(NC(=N)N)cc2)cc1)c1ccc(OCC(=O)NCc2ccc(NC(=N)N)cc2)cc1` [Compound 31, 2,2-bis-[4-(4-Guanidinylbenzylamino)carbonylmethoxy-phenyl]propane Dihydroacetate]: 200 nM. With `CC(C)(c1ccc(OCC(=O)NCC(=O)NCCCCN)cc1)c1ccc(OCC(=O)NCC(=O)NCCCCN)cc1` [Compound 34, 2,2-bis-[4-(10-Amino-3,6-diaza-2,5-dioxodecyloxy)-phenyl]propane Dihydrochloride] the figure was 2000 nM; with `CC(C)(c1ccc(OC(=O)N2CCN(C(=O)NCc3ccc(CN)cc3)CC2)cc1)c1ccc(OC(=O)N2CCN(C(=O)NCc3ccc(CN)cc3)CC2)cc1` [Compound 36, 2,2-bis-(4-[4-(4-Aminomethylbenzylcarbamoyl)-1-piperazinylcarbonyloxy]phenyl)propane Dihydrochloride], 28 nM.
